In patent US20170368176A1 (priority 2014, published 2017):
Values joined by “and” are separate entries in the source; they are usually repeats but may differ in a detail not shown here. Equal values may be shown once. “Also recorded” adds a separate entry of the source. Where a name gives a salt, the structure may show the parent alone. Read-outs that look alike come from different tables or passages of the source.

How the values were obtained:
rat cornea = tested on: rat cornea; parameters: species or system Sprague-Dawley rats; details: in vivo
α2-AR = details: cited from earlier work
peripheral nerve = details: in vivo; cited from earlier work
rats [1] = details: rat, in vivo; cited from earlier work
[2] = tested on: human corneal limbal epithelial (HCLE) cells
rats [3] = details: rat, in vivo
[4] = in vivo; cited from earlier work
[5] = in vivo; cited from earlier work; remark: listed apart in the source

Clc1cccc(Cl)c1N=C1NCCN1 [CLON, clonidine hydrochloride]
effect of the added agent on the duration of corneal block from TTX (in words) (rat cornea): failed to prolong corneal block
selectivity for the α2-AR, times less selective than dexmedetomidine (α2-AR): 8 times
effective concentrations in peripheral nerve (peripheral nerve): 10 µM

Cc1cccc([C@H](C)c2cnc[nH]2)c1C [DMED, (S)-4-[1-(2,3-Dimethylphenyl)ethyl]-3H-imidazole]
Block0.5 (duration without blink response to 0.5 cm filament) (rat cornea): 0 ± 0 min
Block2 (duration without blink response to 2 cm filament) (rat cornea): 0 ± 0 min
Block<6 (duration without blink response to any filament less than 6 cm) (rat cornea): 0 ± 0 min
corneal anesthesia (in words) (rat cornea): did not produce any degree of corneal anesthesia
effect of increasing doses of DMED on block (FIG. 4) (rat cornea): do not increase block further
perineural doses that produce undesired sedation (rats [1]): above 6 μg/kg
HCLE cell survival compared to cells not exposed to drug [2]: not reduced
sedation, dose response of DMED (FIG. 4) (rats [3]): sedation results from the higher two doses
effective concentrations in peripheral nerve (peripheral nerve): 2.7 µM
half-life [4]: approximately 2 hours

CCCOc1ccc(C(=O)OCCN(CC)CC)cc1N [PPC, Proparacaine hydrochloride]
animals in which block0.5 occurred (rat cornea): all animals
Block0.5 (duration without blink response to 0.5 cm filament) (rat cornea; hydrochloride): 18 ± 6 min
Block2 (duration without blink response to 2 cm filament) (rat cornea; hydrochloride): 35 min and 35 ± 10 min
Block<6 (duration without blink response to any filament less than 6 cm) (rat cornea; hydrochloride): 54 min and 54 ± 8 min

CC[N+](CC)(CC)CC(=O)Nc1c(C)cccc1C.[Br-] [QX-314]
duration of local anesthesia [5]: approximately 24 h

N=C1N[C@@H](O)[C@H]2[C@@H]3OC4(O)OC(C(O)[C@@]2(N1)[C@@H]4O)[C@]3(O)CO (stereo partly drawn) [TTX, Tetrodotoxin]
Block0.5 duration of corneal block (rat cornea): 12 ± 12.5 min
Block2 duration of corneal block (rat cornea): 39 ± 22.7 min
Block < 6 duration of corneal block (rat cornea): 117 ± 19.5 min
animals in which block0.5 of any duration occurred (rat cornea): 5 of 14
block<6 durations compared with 15 mM proparacaine (rat cornea): comparable to those from 15 mM proparacaine

CCN(c1ccccc1)c1cc(NC)[n+](C)c(C)n1.[Cl-] [ZD7288, 4-(N-Ethyl-N-phenylamino)-1,2 dimethyl-6-(methylamino) pyrimidinium chloride]
effect of the added agent on the duration of corneal block from TTX (in words) (rat cornea): prolongs the duration of corneal block from TTX

CNC[C@H](O)c1ccc(O)c(O)c1 [epinephrine]
effect of the added agent on the duration of corneal block from TTX (in words) (rat cornea): failed to prolong corneal block

CNC[C@H](O)c1cccc(O)c1 [phenylephrine]
effect of the added agent on the duration of corneal block from TTX (in words) (rat cornea): at low concentrations (but not high concentrations) prolonged the duration of corneal block from TTX; also recorded: greatly prolonged the duration of corneal block by TTX

COc1cc2nc(N3CCN(C(=O)c4ccco4)CC3)nc(N)c2cc1OC [prazosin]
effect of the added agent on the duration of corneal block from TTX (in words) (rat cornea): did not shorten the duration of corneal block from TTX
